According to patent US20240051970A1, “COMPOUNDS AND COMPOSITIONS FOR TREATING CONDITIONS ASSOCIATED WITH STING ACTIVITY” (IFM Due, Inc., priority 2020, published 2024):

molecular target: T1, hSTING (Homo sapiens, UniProt Q86WV6, G230A/H232R/R293Q/R71H); test: STING reporter assay (luciferase) in THP1-Dual KO-IFNAR2 cells activated with 2'3'cGAMP; format: cell-based; settings: 15 μM 2'3'cGAMP, 24 h
T1 construct: host or cells: THP1-Dual KO-IFNAR2 cells
Procedure: STING pathway activation by the compounds described herein was measured using THP1-Dual™ cells (KO-IFNAR2).
THP1-Dual™ KO-IFNAR2 Cells (obtained from invivogen) were maintained in RPMI, 10% FCS, 5 ml P/S, 2 mM L-glut, 10 mM Hepes, and 1 mM sodium pyruvate. Compounds were spotted in empty 384 well tissue culture plates (Greiner 781182) by Echo for a final concentration of 0.0017-100 μM. Cells were plated into the TC plates at 40 μL per well, 2×10E6 cells/mL. For activation with STING ligand, 2′3′cGAMP (MW 718.38, obtained from Invivogen), was prepared in Optimem media.
The following solutions were prepared for each 1×384 plate: • Solution A: 2 mL Optimem with one of the following stimuli: • 60 μL of 10 mM 2′3′cGAMP 4 150 μM stock • Solution B: 2 mL Optimem with 60 μL Lipofectamine 2000 4 Incubate 5 min at RT
2 mL of solution A and 2 ml Solution B was mixed and incubated for 20 min at room temperature (RT). 20 μL of transfection solution (A+B) was added on top of the plated cells, with a final 2′3′cGAMP concentration of 15 μM. The plates were then centrifuged immediately at 340 g for 1 minute, after which they were incubated at 37° C., 5% CO2, >98% humidity for 24 h. Luciferase reporter activity was then measured. EC50 values were calculated by using standard methods known in the art.
Luciferase reporter assay: 10 μL of supernatant from the assay was transferred to white 384-plate with flat bottom and squared wells. One pouch of QUANTI-Luc™ Plus was dissolved in 25 mL of water. 100 μL of QLC Stabilizer per 25 mL of QUANTI-Luc™ Plus solution was added. 50 μL of QUANTI-Luc™ Plus/QLC solution per well was then added. Luminescence was measured on a Platereader (e.g., Spectramax I3X (Molecular Devices GF3637001)).
Luciferase reporter activity was then measured. EC50 values were calculated by using standard methods known in the art.

T1 sequence (Q86WV6 whole entry R71H/G230A/H232R/R293Q): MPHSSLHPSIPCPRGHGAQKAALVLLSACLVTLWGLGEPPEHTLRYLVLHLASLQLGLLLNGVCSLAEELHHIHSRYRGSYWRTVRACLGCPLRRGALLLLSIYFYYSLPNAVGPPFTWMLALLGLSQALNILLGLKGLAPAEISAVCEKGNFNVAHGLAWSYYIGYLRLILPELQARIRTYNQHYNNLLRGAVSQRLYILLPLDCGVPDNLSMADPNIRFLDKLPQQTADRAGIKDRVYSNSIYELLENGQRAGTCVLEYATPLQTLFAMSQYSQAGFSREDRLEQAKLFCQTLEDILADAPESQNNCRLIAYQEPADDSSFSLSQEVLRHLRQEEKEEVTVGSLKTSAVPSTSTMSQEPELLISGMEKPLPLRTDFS

SMILES	EC50 [nM]
CC(C)(C)OC(=O)NC1CCC(c2ccc3[nH]c(Nc4cc(Cl)c5cc[nH]c5c4)nc3c2)CC1 (stereo not drawn) [Compound 148, tert-butyl N-(4-{2-[(4-chloro-1H-indol-6-yl)amino]-1H-1,3-benzodiazol-5-yl}cyclohexyl)carbamate]	200 to 1000
N#CC1(c2ccc(-c3ccc4[nH]c(Nc5cc(Cl)c6cc[nH]c6c5)nc4c3)cc2)CC1 [Compound 149, 1-(4-{2-[(4-chloro-1H-indol-6-yl)amino]-1H-1,3-benzodiazol-5-yl}phenyl)cyclopropane-1-carbonitrile]	200 to 1000
Cn1nccc1-c1ccc2[nH]c(Nc3cc(Cl)c4cc[nH]c4c3)nc2c1 [Compound 150, N-(4-chloro-1H-indol-6-yl)-5-(1-methyl-1H-pyrazol-5-yl)-1H-1,3-benzodiazol-2-amine]	200 to 1000
CC(C)(C)OC(=O)N1CCCC(c2ccc3[nH]c(Nc4cc(Cl)c5cc[nH]c5c4)nc3c2)C1 (stereo not drawn) [Compound 151, tert-butyl 3-{2-[(4-chloro-1H-indol-6-yl)amino]-1H-1,3-benzodiazol-5-yl}piperidine-1-carboxylate]	200 to 1000
CC(=O)N1CCC(c2ccc3[nH]c(Nc4cc(Cl)c5cc[nH]c5c4)nc3c2)CC1 [Compound 152, 1-(4-{2-[(4-chloro-1H-indol-6-yl)amino]-1H-1,3-benzodiazol-5-yl}piperidin-1-yl)ethan-1-one]	1000 to 5000
FC(F)(F)CN1CCC(c2ccc3[nH]c(Nc4cc(Cl)c5cc[nH]c5c4)nc3c2)CC1 [Compound 153, N-(4-chloro-1H-indol-6-yl)-5-[1-(2,2,2-trifluoroethyl)piperidin-4-yl]-1H-1,3-benzodiazol-2-amine]	200 to 1000
Clc1cc(Nc2nc3cc(C4CCOC4)ccc3[nH]2)cc2[nH]ccc12 (stereo not drawn) [Compound 154, N-(4-chloro-1H-indol-6-yl)-5-(oxolan-3-yl)-1H-1,3-benzodiazol-2-amine]	200 to 1000
CC(C)n1cc(-c2ccc3[nH]c(Nc4cc(Cl)c5cc[nH]c5c4)nc3c2)cn1 [Compound 155, N-(4-chloro-1H-indol-6-yl)-5-[1-(propan-2-yl)-1H-pyrazol-4-yl]-1H-1,3-benzodiazol-2-amine]	200 to 1000
Clc1cc(Nc2nc3cc(-c4cnn(CC5CC5)c4)ccc3[nH]2)cc2[nH]ccc12 [Compound 156, N-(4-chloro-1H-indol-6-yl)-5-[1-(cyclopropylmethyl)-1H-pyrazol-4-yl]-1H-1,3-benzodiazol-2-amine]	200 to 1000
COCCn1cc(-c2ccc3[nH]c(Nc4cc(Cl)c5cc[nH]c5c4)nc3c2)cn1 [Compound 158, N-(4-chloro-1H-indol-6-yl)-5-[1-(2-methoxyethyl)-1H-pyrazol-4-yl]-1H-1,3-benzodiazol-2-amine]	200 to 1000
Clc1cc(Nc2nc3cc(-c4cnn(C5CCOCC5)c4)ccc3[nH]2)cc2[nH]ccc12 [Compound 159, N-(4-chloro-1H-indol-6-yl)-5-[1-(oxan-4-yl)-1H-pyrazol-4-yl]-1H-1,3-benzodiazol-2-amine]	200 to 1000
CN1CCC(c2ccc3[nH]c(Nc4cc(Cl)c5cc[nH]c5c4)nc3c2)CC1 [Compound 160, N-(4-chloro-1H-indol-6-yl)-5-(1-methylpiperidin-4-yl)-1H-1,3-benzodiazol-2-amine]	5000 to 100000
Clc1cc(Nc2nc3cc(C4CCOCC4)ccc3[nH]2)cc2[nH]ccc12 [Compound 161, N-(4-chloro-1H-indol-6-yl)-5-(oxan-4-yl)-1H-1,3-benzodiazol-2-amine]	200 to 1000
CC(C)(C)OC(=O)N1CCC(c2ccc3[nH]c(Nc4cc(Cl)c5cc[nH]c5c4)nc3c2)CC1 [Compound 162, tert-butyl 4-{2-[(4-chloro-1H-indol-6-yl)amino]-1H-1,3-benzodiazol-5-yl}piperidine-1-carboxylate]	200 to 1000
FC(F)n1cc(-c2ccc3[nH]c(Nc4cc(Cl)c5cc[nH]c5c4)nc3c2)cn1 [Compound 163, N-(4-chloro-1H-indol-6-yl)-5-[1-(difluoromethyl)-1H-pyrazol-4-yl]-1H-1,3-benzodiazol-2-amine]	200 to 1000
Clc1cc(Nc2nc3cc(-c4cnn(-c5ccccc5)c4)ccc3[nH]2)cc2[nH]ccc12 [Compound 164, N-(4-chloro-1H-indol-6-yl)-5-(1-phenyl-1H-pyrazol-4-yl)-1H-1,3-benzodiazol-2-amine]	200 to 1000
CC(C)CCc1ccc2[nH]c(Nc3cc(Cl)c4cc[nH]c4c3)nc2c1 [Compound 165, N-(4-chloro-1H-indol-6-yl)-5-(3-methylbutyl)-1H-1,3-benzodiazol-2-amine]	200 to 1000
CC(C)(O)c1ccc(-c2ccc3[nH]c(Nc4cc(Cl)c5cc[nH]c5c4)nc3c2)cc1 [Compound 166, 2-(4-{2-[(4-chloro-1H-indol-6-yl)amino]-1H-1,3-benzodiazol-5-yl}phenyl)propan-2-ol]	200 to 1000
N#Cc1cncc(-c2ccc3[nH]c(Nc4cc(Cl)c5cc[nH]c5c4)nc3c2)c1 [Compound 167, 5-{2-[(4-chloro-1H-indol-6-yl)amino]-1H-1,3-benzodiazol-5-yl}pyridine-3-carbonitrile]	200 to 1000
Clc1cc(Nc2nc3cc(C4CCCCC4)ccc3[nH]2)cc2[nH]ccc12 [Compound 168, N-(4-chloro-1H-indol-6-yl)-5-cyclohexyl-1H-1,3-benzodiazol-2-amine]	200 to 1000
COCc1cccc(-c2ccc3[nH]c(Nc4cc(Cl)c5cc[nH]c5c4)nc3c2)c1 [Compound 169, N-(4-chloro-1H-indol-6-yl)-5-[3-(methoxymethyl)phenyl]-1H-1,3-benzodiazol-2-amine]	200 to 1000
FC(F)(F)Oc1ccc(-c2ccc3[nH]c(Nc4cc(Cl)c5cc[nH]c5c4)nc3c2)cc1 [Compound 170, N-(4-chloro-1H-indol-6-yl)-5-[4-(trifluoromethoxy)phenyl]-1H-1,3-benzodiazol-2-amine]	200 to 1000
CS(=O)(=O)N1CCC(c2ccc3[nH]c(Nc4cc(Cl)c5cc[nH]c5c4)nc3c2)CC1 [Compound 171, N-(4-chloro-1H-indol-6-yl)-5-(1-methanesulfonylpiperidin-4-yl)-1H-1,3-benzodiazol-2-amine]	200 to 1000
O=C(C1CC1)N1CCC(c2ccc3[nH]c(Nc4cc(Cl)c5cc[nH]c5c4)nc3c2)CC1 [Compound 172, N-(4-chloro-1H-indol-6-yl)-5-(1-cyclopropanecarbonylpiperidin-4-yl)-1H-1,3-benzodiazol-2-amine]	200 to 1000
CC(C)(O)CCc1ccc2[nH]c(Nc3cc(Cl)c4cc[nH]c4c3)nc2c1 [Compound 173, 4-{2-[(4-chloro-1H-indol-6-yl)amino]-1H-1,3-benzodiazol-5-yl}-2-methylbutan-2-ol]	200 to 1000
Fc1c[nH]c2cc(Nc3nc4cc(Cl)c(Cl)cc4[nH]3)ccc12 [Compound 174, 5,6-dichloro-N-(3-fluoro-1H-indol-6-yl)-1H-1,3-benzodiazol-2-amine]	40 to 200
Fc1c[nH]c2cc(Nc3nc4cc(C(F)(F)F)ccc4[nH]3)ccc12 [Compound 175, N-(3-fluoro-1H-indol-6-yl)-5-(trifluoromethyl)-1H-1,3-benzodiazol-2-amine]	40 to 200
